According to ChEMBL document CHEMBL1177735, “Amaryllidaceae alkaloids belonging to different structural subgroups display activity against apoptosis-resistant cancer cells” (J Nat Prod, 2010):
pIC50: −log10 of the molar value. Structures can show the parent of a compound that is named as a salt.

How the values were obtained:
[1] = Cytotoxicity against human Hs683 cells after 72 hrs by MTT colorimetric assay; assay type: functional, cell-based; settings: Hs 683, 72 h
[2] = test system: A549; experiment: Cytotoxicity against human A549 cells after 72 hrs by MTT colorimetric assay; assay type: functional, cell-based; settings: A549, 72 h
[3] = Cytotoxicity against human U373 cells after 72 hrs by MTT colorimetric assay; assay type: functional, cell-based, U-373MG ATCC; settings: U373 MG
[4] = Cytotoxicity against human OE21 cells after 72 hrs by MTT colorimetric assay; assay type: functional, cell-based; settings: OE21, 72 h
[5] = test system: SK-MEL; experiment: Cytotoxicity against human SK-MEL cells after 72 hrs by MTT colorimetric assay; assay type: functional, cell-based
[6] = test system: B16-F10; experiment: Cytotoxicity against mouse B16F10 cells after 72 hrs by MTT colorimetric assay; assay type: functional, cell-based; settings: B16-F10, 72 h

Row | SMILES | pIC50 [1] | pIC50 [2] | pIC50 [3] | pIC50 [4] | pIC50 [5] | pIC50 [6]
1 | O[C@H]1[C@H]2c3cc4c(cc3CN3CCC(=C[C@@H]1O)[C@H]23)OCO4 [LYCORINE] | 5.16 | 5.38 | 5.12 | 5.35 | 5.08 | –
2 | CN1CC[C@@H]2C[C@H](O)[C@@H]3OC(=O)c4cc5c(cc4[C@H]3[C@@H]21)OCO5 [CLIVONINE HYDROCHLORIDE] | < 5.00 | < 5.00 | < 5.00 | < 5.00 | < 5.00 | < 5.00
3 | COc1c2c(cc3c1OCO3)[C@]13C=C[C@H](OC)C[C@H]1N(C2)C[C@@H]3O [AMBELLINE] | < 5.00 | < 5.00 | < 5.00 | 4.07 | < 5.00 | < 5.00
4 | CO[C@@H]1C=C[C@@]23c4cc5c(cc4[C@@H](O)N(C[C@H]2O)[C@H]3C1)OCO5 [HAEMANTHIDINE] | 5.37 | 5.40 | 5.42 | 5.43 | 5.38 | 5.51
5 | COC1=C[C@@H]2CCN3Cc4cc5c(cc4[C@@H]([C@H]23)[C@@H]1O)OCO5 [AMARBELLISINE] | 5.09 | – | 5.14 | 5.17 | 5.08 | –
6 | O[C@@H]1CC=C2CCN3Cc4cc5c(cc4[C@H]1[C@@H]23)OCO5 [CARANINE] | < 5.00 | < 5.00 | < 5.00 | < 5.00 | < 5.00 | < 5.00
7 | COc1cc2c(cc1OC)[C@@H]1[C@H](O)[C@@H](OC)C=C3CCN(C2)[C@H]31 [GALANTHINE] | < 5.00 | < 5.00 | < 5.00 | < 5.00 | < 5.00 | < 5.00
8 | COC1C=C[C@@]23CCN(Cc4cc5c(cc42)OCO5)[C@@H]3C1 (stereo partly specified) | < 5.00 | < 5.00 | < 5.00 | 4.01 | < 5.00 | < 5.00
9 | COc1c2c(cc3c1OCO3)[C@@]13CCN(C2)[C@@H]1CC=C[C@H]3O [BUPHANAMINE] | < 5.00 | < 5.00 | < 5.00 | < 5.00 | < 5.00 | < 5.00
10 | CC(O)CC(=O)O[C@H]1C[C@H]2CCN(C)[C@H]2[C@@H]2c3cc4c(cc3C(=O)O[C@H]21)OCO4 (stereo partly specified) [NOBILISITINE B] | < 5.00 | < 5.00 | < 5.00 | < 5.00 | < 5.00 | < 5.00
11 | COc1cc2c(cc1O)[C@@H]1[C@H](O)[C@@H](O)C=C3CCN(C2)[C@H]31 [PSEUDOLYCORINE] | 5.10 | 5.13 | 5.11 | 5.10 | < 5.00 | –
12 | CO[C@@H]1C=C[C@@]23c4cc5c(cc4CN(C[C@@H]2O)[C@H]3C1)OCO5 [(+)-HAEMANTHAMINE] | 5.15 | 5.35 | 5.11 | 5.17 | 5.07 | 5.17
13 | [O-]c1cc2c3c(c1)c1cc4c(cc1c[n+]3CC2)OCO4 [UNGEREMINE] | < 5.00 | < 5.00 | 4.08 | < 5.00 | < 5.00 | < 5.00
14 | COc1cc2c(cc1O)CN1CCC3=CC[C@@H](O)[C@@H]2[C@@H]31 [NORPLUVINE] | < 5.00 | < 5.00 | < 5.00 | < 5.00 | < 5.00 | < 5.00
15 | CO[C@@H]1C=C[C@@]23c4cc5c(cc4CO[C@]2(O)CN(C)[C@H]3C1)OCO5 [TAZETTINE] | < 5.00 | < 5.00 | < 5.00 | 4.11 | < 5.00 | < 5.00
